The source of these data is patent US12534441B2, “Tryptamine analogues” (priority 2021, dated 2026).

Assay [1] concerns serotonin (1a, 1b, 2a, 2c and 7 receptors). The experiment in a line: Serotonin receptor cAMP assay (Multispan, HTRF). The assay is classed as cell-based, Human. The following applies: percentage relative response vs 10 μM forskolin; serotonin control; FIG. 1. Here is the method: Compounds 005, 008 and 018 were assayed using a serotonin (1a, 1b, 2a, 2c and 7 receptors) cAMP assay, provided by Multispan. The reference used was 10 μM forskolin (a cAMP activator) to calculate the percentage relative response, serotonin was used as the control. The results can be seen in FIG. 1.
cAMP Gs dynamic kit—cisbio—cat. No. 62AM4PEC
MULTISCREEN™ HEK293T Cell Line Stably Expressing Human 5-HT1A Receptor, Catalog DC1319a
MULTISCREEN™ HEK293T Cell Line Stably Expressing Human 5-HT1B Receptor, Catalog DC1320a
(§1) MULTISCREEN™ CHO-K1 Cell Line Stably Expressing Human 5-HT2A Receptor, Catalog DC1324-1
(§2) MULTISCREEN™ CHO-K1 Cell Line Stably Expressing Human 5-HT2C Receptor, Catalog DC1326-1
MULTISCREEN™ HEK293T Cell Line Stably Expressing Human 5-HT7 Receptor, Catalog DC1334
For orientation: Cyclic AMP is a second messenger, typically raised through Gs and lowered through Gi signalling.

A further assay has as its target T1, HTR2A (Homo sapiens, UniProt P28223).
T1 construct: host or cells: U2OS
In words: B-arrestin assay (DiscoverX PathHunter), 2a receptor. The class given is cell-based. Conditions: percentage relative response vs 10 μM serotonin; FIG. 4. The method, then:
(§3) Compounds 005, 008 and 018 were assayed using a serotonin (1a, 1b, 2a and 2c receptors) B-arrestin assay, provided by DiscoverX. The reference used was 10 μM serotonin to calculate the percentage relative response. The results can be seen in FIG. 4. […] The compounds were also assayed in a serotonin 2b receptor B-arrestin assay, the results of which can be seen in FIG. 5.
HTR2A PathHunter® eXpress HTR2A U2OS β-Arrestin GPCR Assay 93-0401E3CP19M 200 dp (2×96-well)

The next assay has as its target T2, 5-HT2C Receptor (Homo sapiens, UniProt P28335).
T2 construct: host or cells: CHO-K1
T2 sequence (P28335 33-458): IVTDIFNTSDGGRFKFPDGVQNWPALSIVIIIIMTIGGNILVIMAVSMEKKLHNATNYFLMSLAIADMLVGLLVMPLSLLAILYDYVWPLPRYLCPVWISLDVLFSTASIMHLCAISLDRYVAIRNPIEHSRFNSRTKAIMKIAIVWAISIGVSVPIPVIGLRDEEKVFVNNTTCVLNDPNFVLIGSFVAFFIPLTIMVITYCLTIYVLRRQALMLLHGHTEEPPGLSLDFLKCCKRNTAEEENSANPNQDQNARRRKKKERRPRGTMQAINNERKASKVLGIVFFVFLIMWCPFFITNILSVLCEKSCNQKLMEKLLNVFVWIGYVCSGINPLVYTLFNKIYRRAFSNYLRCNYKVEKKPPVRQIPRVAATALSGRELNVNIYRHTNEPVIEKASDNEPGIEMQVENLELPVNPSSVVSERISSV
In words: Serotonin calcium (Ca2+) assay, 2c receptor. The class given is cell-based. The following applies: percentage relative response vs 10 μM serotonin, RLU; FIG. 3. The method, then:
Compounds 005, 008 and 018 were assayed using a serotonin (2a, 2b and 2c receptors) calcium (Ca^2+) assay, provided by Multispan. The reference used was 10 μM serotonin to calculate the percentage relative response in relative light units (RLU). The results can be seen in FIG. 3. Some activity for compound 005 in the 2c receptor assay was detected.
FLIPR calcium 6 assay explorer kit—VWR—cat. No. MLDVR8190
as §2

For another assay, the target named is T3, HTR2C (Homo sapiens, UniProt P28335).
T3 construct: host or cells: U2OS
T3 sequence (P28335 33-458): T2 sequence (P28335 33-458)
In words: B-arrestin assay (DiscoverX PathHunter), 2c receptor. The assay is classed as cell-based. The following applies: percentage relative response vs 10 μM serotonin; FIG. 4. The method, then: as §3
HTR2C PathHunter® eXpress HTR2C U2OS β-Arrestin GPCR Assay 93-0289E3CP3M 200 dp (2×96-well)

The subject of assay [2] is serotonin (2a, 2b and 2c receptors). In words: Serotonin receptor inositol phosphate 1 (IP1) assay (Multispan). The following applies: percentage relative response vs 1 μM serotonin; FIG. 2. The assay is classed as cell-based, Human. The method, then: Compounds 005, 008 and 018 were assayed using a serotonin (2a, 2b and 2c receptors) inositol phosphate 1 (IP1) assay, provided by Multispan. The reference used was 1 μM serotonin to calculate the percentage relative response. The results can be seen in FIG. 2.
IP-One Gq kit—cisbio—cat. No. 62IPAPEB
as §1
MULTISCREEN™ CHO-K1 Cell Line Stably Expressing Human 5-HT2B Receptor, Catalog DC1325-1
as §2

Each structure is given as a SMILES string.

T1 sequence (P28223 whole entry): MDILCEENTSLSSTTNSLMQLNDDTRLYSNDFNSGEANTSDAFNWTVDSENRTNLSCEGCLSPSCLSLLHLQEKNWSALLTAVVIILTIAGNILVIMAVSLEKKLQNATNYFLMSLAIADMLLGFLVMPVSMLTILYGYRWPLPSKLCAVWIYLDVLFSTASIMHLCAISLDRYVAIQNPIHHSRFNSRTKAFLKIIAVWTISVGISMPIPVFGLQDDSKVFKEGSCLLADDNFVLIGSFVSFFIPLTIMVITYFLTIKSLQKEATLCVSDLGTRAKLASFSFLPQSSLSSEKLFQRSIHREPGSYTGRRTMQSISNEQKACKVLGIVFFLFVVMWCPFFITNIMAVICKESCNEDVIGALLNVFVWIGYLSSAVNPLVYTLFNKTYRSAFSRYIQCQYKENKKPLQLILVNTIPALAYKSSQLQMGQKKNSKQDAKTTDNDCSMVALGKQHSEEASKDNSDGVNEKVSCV

`CCN(C)CCc1c[nH]c2cccc(OC(=O)Nc3ccccc3)c12` [Compound 005, (S)-ethyl(methyl)(2-{4-[(phenylcarbam-oyl)oxy]-1H-indol-3-yl}ethyl)azanium]: the “cAMP assay result (activation of the cAMP pathway)” value in assay [1] was “may have some activation of the cAMP pathway”. Further, the “B-arrestin assay activity, 2a receptor” value at HTR2A is given as “Some activity”. Also, the “Ca2+ assay activity, 2c receptor” value at 5-HT2C Receptor is reported as “Some activity”. Moreover, the “B-arrestin assay activity, 2c receptor” value on HTR2C is recorded as “appeared to have activity”. For the same compound, the “IP1 assay result (response curves)” value in assay [2] is “incomplete response curves in this assay, showing agonistic activity”.
On to `CCN(C)CCc1c[nH]c2cccc(Oc3ccccn3)c12` [Compound 008, (S)-ethyl(methyl){2-[4-(pyridin-2-yloxy)-1H-indol-3-ylethyl}-azanium], for which the “B-arrestin assay activity, 2a receptor” value on HTR2A is “Some activity”. In addition, in assay [2], the “IP1 assay result (response curves)” value is “incomplete response curves in this assay, showing agonistic activity”.
Regarding `CC(C)N(C)[C@H](C)Cc1c[nH]c2ccccc12` [Compound 018, (R)-[(2R)-1-(1H-indol-3-yl)propan-2-yl](methyl)(propan-2-yl)azanium], the “B-arrestin assay activity, 2a receptor” value at HTR2A was “Some activity”. For the same compound, the “IP1 assay result (response curves)” value in assay [2] was “incomplete response curves in this assay, showing agonistic activity”.
